Assays:
[1] = molecular target: T1, human H1 (Homo sapiens, UniProt P35367); test: In vitro histamine H1 receptor cell-based aequorin bioluminescence antagonist assay; details: CHO-K1 cells expressing human H1 and aequorin; histamine at EC80; read-out: H1 Antagonist EC50
T1 construct: host or cells: CHO-K1, also expressing mitochondrion-targeted aequorin
Procedure, shortened: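 CHO-K1 cells stably expressing human H1 or H4 plus mitochondrial aequorin (H4 also with Gα16), loaded with 5 μM coelenterazine-h for 4 h at ~21 °C. Compounds preincubated 15 min at room temperature, then histamine at EC80 added.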

[2] = molecular target: T2, human H4 (Homo sapiens, UniProt Q9H3N8); test: In vitro histamine H4 receptor cell-based aequorin bioluminescence antagonist assay; details: CHO-K1 cells expressing human H4, aequorin and Gα16; histamine at EC80
T2 construct: host or cells: CHO-K1, also expressing mitochondrion-targeted aequorin and human Gα16
Method: In vitro Histamine Receptor Cell-Based Assays
The cell-based assays utilize an aequorin dependent bioluminescence signal. Doubly-transfected, stable CHO—K1 cell lines expressing human H1 or H4, mitochondrion-targeted aequorin, and (H4 only) human G protein Gα16 are obtained from Perkin-Elmer. Cells are maintained in F12 (Ham's) growth medium, containing 10% (vol./vol.) fetal bovine serum, penicillin (100 IU/mL), streptomycin (0.1 mg/mL), zeocin (0.25 mg/mL) and geneticin (0.40 mg/mL). Cell media components are from Invitrogen, Inc. One day prior to assay, the growth medium is replaced with the same, excluding zeocin and geneticin.
For assay preparation, growth medium is aspirated, and cells are rinsed with calcium-free, magnesium-free phosphate-buffered saline, followed by two to three minute incubation in Versene (Invitrogen, Inc.) at 37° C. Assay medium (DMEM:F12 [50:50], phenol-red free, containing 1 mg/mL protease-free bovine serum albumin) is added to collect the released cells, which are then centrifuged. The cell pellet is re-suspended in assay medium, centrifuged once more, and re-suspended in assay medium to a final density of 5×10^6 cells/mL. Coelenterazine-h dye (500 μM in ethanol) is added to a final concentration of 5 μM, and mixed immediately. The conical tube containing the cells is then wrapped with foil to protect the light-sensitive dye. The cells are incubated for four hours further at room temperature (approximately 21° C.) with end-over-end rotation to keep them in suspension.
Just before assay, the dye-loaded cells are diluted to 0.75×10^6 cells/mL (H1 receptor) or 1.5×10^6 cells/mL (H4 receptor) with additional assay medium. Cells are dispensed to 1536 well micro-titer plates at 3 μL/well. To assay receptor antagonism, 60 nl of 100× concentration test compounds in 100% dimethyl sulfoxide (DMSO) are dispensed to the wells, one compound per well, by passive pin transfer, and the plates are incubated for 15 minutes at room temperature. […] The pipette dispenses 3 μL/well of agonist (histamine, at twice the final concentration, where final concentration is a previously determined EC80) in assay medium, with concurrent bioluminescence detection. Agonist activity of test compounds is excluded by separate assays that measure response to test compounds immediately, without added histamine agonist.
CCD image capture on the Lumilux includes a 5 second baseline read prior to agonist addition, and generally a 40 second read per plate after agonist addition. A decrease in bioluminescence signal (measured either as area-under-the-curve, or maximum signal amplitude minus minimum signal amplitude) correlates with receptor antagonism in a dose dependent manner. The negative control is DMSO lacking any test compound. For antagonist assays, the positive controls are diphenhydramine (2-Diphenylmethoxy-N,N-dimethylethylamine, 10 μM final concentration, H1 receptor) or JNJ7777120 (1-[(5-Chloro-1H-indol-2-yl)carbonyl]-4-methyl-piperazine, 10 μM final concentration, H4 receptor). Efficacy is measured as a percentage of positive control activity.

T1 sequence (P35367 whole entry): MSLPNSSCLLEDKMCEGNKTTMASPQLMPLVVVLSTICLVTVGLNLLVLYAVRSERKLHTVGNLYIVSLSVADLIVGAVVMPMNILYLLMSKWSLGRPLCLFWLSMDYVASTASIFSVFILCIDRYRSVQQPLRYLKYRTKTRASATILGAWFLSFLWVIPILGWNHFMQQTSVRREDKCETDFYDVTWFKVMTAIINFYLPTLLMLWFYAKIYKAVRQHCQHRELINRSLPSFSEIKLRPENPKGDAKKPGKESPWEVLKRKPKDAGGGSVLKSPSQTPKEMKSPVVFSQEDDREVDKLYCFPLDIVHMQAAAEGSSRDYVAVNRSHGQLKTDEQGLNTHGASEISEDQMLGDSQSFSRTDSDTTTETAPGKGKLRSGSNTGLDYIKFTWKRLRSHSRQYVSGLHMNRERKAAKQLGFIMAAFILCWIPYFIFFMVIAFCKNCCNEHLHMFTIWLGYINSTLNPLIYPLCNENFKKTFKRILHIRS

Compound | EC50 [1] [µM] | EC50 [2] [µM]
COc1ccc(CNc2ncnc3scc(C)c23)cc1O [Example 171, 2-methoxy-5-[({5-methylthieno[2,3-d]pyrimidin-4-yl}amino)methyl]phenol] | > 10 | > 10
Cc1csc2ncnc(N(CCO)[C@H](C)c3ccccc3)c12 [Example 236, 2-({5-methylthieno[2,3-d]pyrimidin-4-yl}[(1R)-1-phenylethyl]amino)ethan-1-ol] | > 10 | > 10
Cc1csc2ncnc(N3CCN(c4ccc(F)cc4)CC3)c12 [Example 246, 1-(4-fluorophenyl)-4-{5-methylthieno[2,3-d]pyrimidin-4-yl}piperazine] | > 10 | > 10
Cc1csc2ncnc(NCCN3CCCC3)c12 [Example 92, 5-methyl-N-[2-(pyrrolidin-1-yl)ethyl]thieno[2,3-d]pyrimidin-4-amine] | > 10 | > 10
Cc1csc2ncnc(N(Cc3ccccc3)C(C)C)c12 [Example 225, N-benzyl-5-methyl-N-(propan-2-yl)thieno[2,3-d]pyrimidin-4-amine] | > 10 | > 10
Cc1csc2ncnc(N(C)C3CCCCC3)c12 [Example 200, N-cyclohexyl-N,5-dimethylthieno[2,3-d]pyrimidin-4-amine] | > 10 | > 10
COCCNc1ncnc2scc(C)c12 [Example 64, N-(2-methoxyethyl)-5-methylthieno[2,3-d]pyrimidin-4-amine] | > 10 | > 10
Cc1csc2ncnc(N3CCN(C4CCCCC4)CC3)c12 [Example 239, 1-cyclohexyl-4-{5-methylthieno[2,3-d]pyrimidin-4-yl}piperazine] | > 10 | > 10
CCN(CC)CCNc1ncnc2scc(C)c12 [Example 94, diethyl[2-({5-methylthieno[2,3-d]pyrimidin-4-yl}amino)ethyl]amine] | > 10 | > 10
COc1cccc(N2CCN(c3ncnc4scc(C)c34)CC2)c1 [Example 263, 1-(3-methoxyphenyl)-4-{5-methylthieno[2,3-d]pyrimidin-4-yl}piperazine] | > 10 | > 10
Cc1csc2ncnc(NCCCn3ccnc3)c12 [Example 105, N-[3-(1H-imidazol-1-yl)propyl]-5-methylthieno[2,3-d]pyrimidin-4-amine] | > 10 | > 10
Cc1csc2ncnc(N3CCN(c4ccc(F)cc4F)CC3)c12 [Example 267, 1-(2,4-difluorophenyl)-4-{5-methylthieno[2,3-d]pyrimidin-4-yl}piperazine] | > 10 | > 10
CCN(CC)CCN(Cc1ccccc1)c1ncnc2scc(C)c12 [Example 272, N-benzyl-N-[2-(diethylamino)ethyl]-5-methylthieno[2,3-d]pyrimidin-4-amine] | > 10 | > 10

Second part, the compound after the results:

EC50 [1] [µM] | EC50 [2] [µM] | Compound
> 10 | > 10 | Cc1csc2ncnc(N(C)CCC#N)c12 [Example 184, 3-[methyl({5-methylthieno[2,3-d]pyrimidin-4-yl})amino]propanenitrile]
> 10 | > 10 | Cc1csc2ncnc(N(CCN(C)C)Cc3ccccc3)c12 [Example 244, N-benzyl-N-[2-(dimethylamino)ethyl]-5-methylthieno[2,3-d]pyrimidin-4-amine]
> 10 | > 10 | CCN(CC)c1ncnc2scc(C)c12 [Example 181, N,N-diethyl-5-methylthieno[2,3-d]pyrimidin-4-amine]
> 10 | > 10 | Cc1cccc(N2CCN(c3ncnc4scc(C)c34)CC2)c1C [Example 254, 1-(2,3-dimethylphenyl)-4-{5-methylthieno[2,3-d]pyrimidin-4-yl}piperazine]
> 10 | > 10 | Cc1csc2ncnc(N(C)C[C@H](O)c3ccc(O)c(O)c3)c12 [Example 248, 4-[(1R)-1-hydroxy-2-[methyl({5-methylthieno[2,3-d]pyrimidin-4-yl})amino]ethyl]benzene-1,2-diol]
